Measurements published in article PMC6600388 (2019).
Read-outs that look alike come from different tables or passages of the source. Residues, ends and D or L forms follow the SMILES beside them.

System: human red blood cells
[1] = read-out: RBC Lysis IC50, pH 7.4, pH 7.4
[2] = read-out: RBC Lysis IC50, pH 5.5, pH 5.5

Molecule	IC50 (red cells of human, pH 5.5) [µM]	IC50 (red cells of human, pH 7.4) [µM]	IC50 [1] [µM]	IC50 [2] [µM]
CC[C@H](C)[C@H](NC(=O)[C@H](CCC(=O)O)NC(=O)CNC(=O)[C@H](Cc1ccccc1)NC(=O)[C@H](CC(C)C)NC(=O)CNC(=O)[C@@H](N)CS)C(=O)N[C@@H](CCC(=O)O)C(=O)N[C@@H](CCC(=O)O)C(=O)N[C@@H](CC(C)C)C(=O)N[C@H](C(=O)N[C@@H](CCC(=O)O)C(=O)N[C@@H](CCC(=O)O)C(=O)NCC(=O)N[C@@H](CC(C)C)C(=O)N[C@@H](CCCCN)C(=O)N[C@@H](CC(N)=O)C(=O)N[C@@H](CC(C)C)C(=O)N[C@H](C(=O)N[C@@H](CC(=O)O)C(=O)N[C@@H](Cc1c[nH]c2ccccc12)C(=O)N[C@@H](Cc1c[nH]c2ccccc12)C(=O)N[C@@H](Cc1ccc(O)cc1)C(=O)NCC(=O)N[C@@H](Cc1ccc(O)cc1)C(=O)NCC(=O)N[C@@H](Cc1c[nH]cn1)C(=O)N[C@@H](CCCCN)C(=O)N[C@@H](CCCCN)C(=O)N[C@@H](Cc1c[nH]cn1)C(=O)N[C@@H](Cc1c[nH]cn1)C(=O)N[C@@H](CCC(N)=O)C(=O)N[C@@H](Cc1c[nH]cn1)C(=O)N[C@@H](CCCNC(=N)N)C(N)=O)[C@@H](C)CC)[C@@H](C)CC [Peptide 62] (H-CGLFGEIEELIEEGLKNLIDWWYGYGHKKHHQHR-NH2)	1.28	> 20	–	–
CC[C@H](C)[C@H](NC(=O)[C@H](CCC(=O)O)NC(=O)CNC(=O)[C@H](Cc1ccccc1)NC(=O)[C@H](CC(C)C)NC(=O)CNC(=O)[C@@H](N)CS)C(=O)N[C@@H](CCC(=O)O)C(=O)N[C@@H](CCC(=O)O)C(=O)N[C@@H](CC(C)C)C(=O)N[C@H](C(=O)N[C@@H](CCC(=O)O)C(=O)N[C@@H](CCC(=O)O)C(=O)NCC(=O)N[C@@H](CC(C)C)C(=O)N[C@@H](CCC(=O)O)C(=O)N[C@@H](CC(N)=O)C(=O)N[C@@H](CC(C)C)C(=O)N[C@H](C(=O)N[C@@H](CC(=O)O)C(=O)N[C@@H](Cc1c[nH]c2ccccc12)C(=O)N[C@@H](Cc1c[nH]c2ccccc12)C(=O)N[C@@H](Cc1ccc(O)cc1)C(=O)NCC(=O)N[C@@H](Cc1ccc(O)cc1)C(=O)NCC(=O)N[C@@H](CCCNC(=N)N)C(=O)N[C@@H](CCCCN)C(=O)N[C@@H](CCCCN)C(=O)N[C@@H](CCCNC(=N)N)C(=O)N[C@@H](CCCNC(=N)N)C(=O)N[C@@H](CCC(N)=O)C(=O)N[C@@H](CCCNC(=N)N)C(=O)N[C@@H](CCCNC(=N)N)C(N)=O)[C@@H](C)CC)[C@@H](C)CC [Peptide 63] (H-CGLFGEIEELIEEGLENLIDWWYGYGRKKRRQRR-NH2)	3.6	> 20	–	–
CC[C@H](C)[C@H](NC(=O)[C@H](CCC(=O)O)NC(=O)CNC(=O)[C@H](Cc1ccccc1)NC(=O)[C@H](CC(C)C)NC(=O)CNC(=O)[C@@H](N)CS)C(=O)N[C@@H](CCC(=O)O)C(=O)N[C@@H](CCC(=O)O)C(=O)N[C@@H](CC(C)C)C(=O)N[C@H](C(=O)N[C@@H](CCC(=O)O)C(=O)N[C@@H](CCC(=O)O)C(=O)NCC(=O)N[C@@H](CC(C)C)C(=O)N[C@@H](CCC(=O)O)C(=O)N[C@@H](CC(N)=O)C(=O)N[C@@H](CC(C)C)C(=O)N[C@H](C(=O)N[C@@H](CC(=O)O)C(=O)N[C@@H](Cc1c[nH]c2ccccc12)C(=O)N[C@@H](Cc1c[nH]c2ccccc12)C(=O)N[C@@H](Cc1ccc(O)cc1)C(=O)NCC(=O)N[C@@H](Cc1ccc(O)cc1)C(=O)NCC(=O)N[C@@H](Cc1c[nH]cn1)C(=O)N[C@@H](CCCCN)C(=O)N[C@@H](CCCCN)C(=O)N[C@@H](Cc1c[nH]cn1)C(=O)N[C@@H](Cc1c[nH]cn1)C(=O)N[C@@H](CCC(N)=O)C(=O)N[C@@H](Cc1c[nH]cn1)C(=O)N[C@@H](CCCNC(=N)N)C(N)=O)[C@@H](C)CC)[C@@H](C)CC [Peptide 64] (H-CGLFGEIEELIEEGLENLIDWWYGYGHKKHHQHR-NH2)	3.91	> 20	–	–
CC[C@H](C)[C@H](NC(=O)[C@H](CCC(=O)O)NC(=O)CNC(=O)[C@H](Cc1ccccc1)NC(=O)[C@H](CC(C)C)NC(=O)CNC(=O)[C@@H](N)CS)C(=O)N[C@@H](CCC(=O)O)C(=O)N[C@@H](CCC(=O)O)C(=O)N[C@@H](Cc1ccccc1)C(=O)N[C@H](C(=O)N[C@@H](CCC(=O)O)C(=O)N[C@@H](CCC(=O)O)C(=O)NCC(=O)N[C@@H](CC(C)C)C(=O)N[C@@H](CCC(=O)O)C(=O)N[C@@H](CC(N)=O)C(=O)N[C@@H](CC(C)C)C(=O)N[C@H](C(=O)N[C@@H](CC(=O)O)C(=O)N[C@@H](Cc1c[nH]c2ccccc12)C(=O)N[C@@H](Cc1c[nH]c2ccccc12)C(=O)N[C@@H](Cc1ccc(O)cc1)C(=O)NCC(=O)N[C@@H](Cc1ccc(O)cc1)C(=O)NCC(=O)N[C@@H](CCCNC(=N)N)C(=O)N[C@@H](CCCCN)C(=O)N[C@@H](CCCCN)C(=O)N[C@@H](CCCNC(=N)N)C(=O)N[C@@H](CCCNC(=N)N)C(=O)N[C@@H](CCC(N)=O)C(=O)N[C@@H](CCCNC(=N)N)C(=O)N[C@@H](CCCNC(=N)N)C(N)=O)[C@@H](C)CC)[C@@H](C)CC [Peptide 65] (H-CGLFGEIEEFIEEGLENLIDWWYGYGRKKRRQRR-NH2)	3.15	> 20	–	–
CC[C@H](C)[C@H](NC(=O)[C@H](CCC(=O)O)NC(=O)CNC(=O)[C@H](Cc1ccccc1)NC(=O)[C@H](CC(C)C)NC(=O)CNC(=O)[C@@H](N)CS)C(=O)N[C@@H](CCC(=O)O)C(=O)N[C@@H](CCC(=O)O)C(=O)N[C@@H](Cc1ccccc1)C(=O)N[C@H](C(=O)N[C@@H](CCC(=O)O)C(=O)N[C@@H](CCC(=O)O)C(=O)NCC(=O)N[C@@H](Cc1c[nH]c2ccccc12)C(=O)N[C@@H](CCC(=O)O)C(=O)N[C@@H](CC(N)=O)C(=O)N[C@@H](Cc1ccccc1)C(=O)N[C@H](C(=O)N[C@@H](CC(=O)O)C(=O)N[C@@H](Cc1c[nH]c2ccccc12)C(=O)N[C@@H](Cc1c[nH]c2ccccc12)C(=O)N[C@@H](Cc1ccc(O)cc1)C(=O)NCC(=O)N[C@@H](Cc1ccc(O)cc1)C(=O)NCC(=O)N[C@@H](CCCNC(=N)N)C(=O)N[C@@H](CCCCN)C(=O)N[C@@H](CCCCN)C(=O)N[C@@H](CCCNC(=N)N)C(=O)N[C@@H](CCCNC(=N)N)C(=O)N[C@@H](CCC(N)=O)C(=O)N[C@@H](CCCNC(=N)N)C(=O)N[C@@H](CCCNC(=N)N)C(N)=O)[C@@H](C)CC)[C@@H](C)CC [Peptide 66] (H-CGLFGEIEEFIEEGWENFIDWWYGYGRKKRRQRR-NH2)	4.08	> 20	–	–
CC[C@H](C)[C@H](NC(=O)[C@H](CC(C)C)NC(=O)[C@H](CCC(=O)O)NC(=O)[C@H](CCC(=O)O)NC(=O)[C@@H](NC(=O)[C@H](CCC(=O)O)NC(=O)[C@H](CCC(=O)O)NC(=O)[C@H](Cc1ccccc1)NC(=O)[C@H](CC(C)C)NC(=O)CNC(=O)[C@@H](N)CS)[C@@H](C)CC)C(=O)N[C@@H](CCC(=O)O)C(=O)N[C@@H](CCC(=O)O)C(=O)NCC(=O)N[C@@H](CC(C)C)C(=O)N[C@@H](CCC(=O)O)C(=O)N[C@@H](CC(N)=O)C(=O)N[C@@H](CC(C)C)C(=O)N[C@H](C(=O)N[C@@H](CC(=O)O)C(=O)N[C@@H](Cc1c[nH]c2ccccc12)C(=O)N[C@@H](Cc1c[nH]c2ccccc12)C(=O)N[C@@H](Cc1ccc(O)cc1)C(=O)NCC(=O)N[C@@H](Cc1ccc(O)cc1)C(=O)NCC(=O)N[C@@H](CCCNC(=N)N)C(=O)N[C@@H](CCCCN)C(=O)N[C@@H](CCCCN)C(=O)N[C@@H](CCCNC(=N)N)C(=O)N[C@@H](CCCNC(=N)N)C(=O)N[C@@H](CCC(N)=O)C(=O)N[C@@H](CCCNC(=N)N)C(=O)N[C@@H](CCCNC(=N)N)C(N)=O)[C@@H](C)CC [Peptide 68] (H-CGLFEEIEELIEEGLENLIDWWYGYGRKKRRQRR-NH2)	4.11	> 20	–	–
CC[C@H](C)[C@H](NC(=O)[C@H](CC(C)C)NC(=O)[C@H](CCC(=O)O)NC(=O)[C@H](CCC(=O)O)NC(=O)[C@@H](NC(=O)[C@H](CCC(=O)O)NC(=O)[C@H](CCC(=O)O)NC(=O)[C@H](Cc1ccccc1)NC(=O)[C@H](CC(C)C)NC(=O)CNC(=O)[C@@H](N)CS)[C@@H](C)CC)C(=O)N[C@@H](CCC(=O)O)C(=O)N[C@@H](CCC(=O)O)C(=O)NCC(=O)N[C@@H](CC(C)C)C(=O)N[C@@H](CCC(=O)O)C(=O)N[C@@H](CC(N)=O)C(=O)N[C@@H](CC(C)C)C(=O)N[C@H](C(=O)N[C@@H](CC(=O)O)C(=O)N[C@@H](Cc1c[nH]c2ccccc12)C(=O)N[C@@H](Cc1c[nH]c2ccccc12)C(=O)N[C@@H](Cc1ccc(O)cc1)C(=O)NCC(=O)N[C@@H](Cc1ccc(O)cc1)C(=O)NCC(=O)N[C@@H](Cc1c[nH]cn1)C(=O)N[C@@H](CCCCN)C(=O)N[C@@H](CCCCN)C(=O)N[C@@H](Cc1c[nH]cn1)C(=O)N[C@@H](Cc1c[nH]cn1)C(=O)N[C@@H](CCC(N)=O)C(=O)N[C@@H](Cc1c[nH]cn1)C(=O)N[C@@H](CCCNC(=N)N)C(N)=O)[C@@H](C)CC [Peptide 69] (H-CGLFEEIEELIEEGLENLIDWWYGYGHKKHHQHR-NH2)	8.73	> 20	–	–
CC[C@H](C)[C@H](NC(=O)[C@H](CC(C)C)NC(=O)[C@H](CCC(=O)O)NC(=O)[C@H](CCC(=O)O)NC(=O)[C@@H](NC(=O)[C@H](CCC(=O)O)NC(=O)[C@H](CCC(=O)O)NC(=O)[C@H](Cc1ccccc1)NC(=O)[C@H](CC(C)C)NC(=O)CNC(=O)[C@@H](N)CS)[C@@H](C)CC)C(=O)N[C@@H](CCC(=O)O)C(=O)N[C@@H](CCC(=O)O)C(=O)NCC(=O)N[C@@H](CC(C)C)C(=O)N[C@@H](CCCCN)C(=O)N[C@@H](CC(N)=O)C(=O)N[C@@H](CC(C)C)C(=O)N[C@H](C(=O)N[C@@H](CC(=O)O)C(=O)N[C@@H](Cc1c[nH]c2ccccc12)C(=O)N[C@@H](Cc1c[nH]c2ccccc12)C(=O)N[C@@H](Cc1ccc(O)cc1)C(=O)NCC(=O)N[C@@H](Cc1ccc(O)cc1)C(=O)NCC(=O)N[C@@H](Cc1c[nH]cn1)C(=O)N[C@@H](CCCCN)C(=O)N[C@@H](CCCCN)C(=O)N[C@@H](Cc1c[nH]cn1)C(=O)N[C@@H](Cc1c[nH]cn1)C(=O)N[C@@H](CCC(N)=O)C(=O)N[C@@H](Cc1c[nH]cn1)C(=O)N[C@@H](CCCNC(=N)N)C(N)=O)[C@@H](C)CC [Peptide 70] (H-CGLFEEIEELIEEGLKNLIDWWYGYGHKKHHQHR-NH2)	2.28	> 20	–	–
CGLFEAIEGFIENGWEGMIDGWYG(Peg11)YGRKKRRQRR [Peptide 36e]	–	–	> 100	–
CGLFEAIEGFIENGWEGMIDGWYG(Peg 3)YGRKKRRQRR [Peptide 36c]	–	–	> 10	1.92
CGLFEAIEGFIENGWEGMIDGWYG(Peg 6)YGRKKRRQRR [Peptide 36d]	–	–	> 10	1.22
CGLFEAIEGFIENGWEGMIDGWYG(Peg 27)YGRKKRRQRR [Peptide 36f]	–	–	> 100	28
